Results on six compounds are retold here after patent US20150105252A1, “SUBSTITUTED PYRAZOLES AS HERBICIDES” (E I DU PONT DE NEMOURS AND COMPANY, priority 2013, published 2015).

Structures are written as SMILES.

The subject of assay [1] is sowthistle. Briefly: Test E preemergence. Format: in vivo, Sonchus oleraceous. The following applies: 21 days, scale 0 to 100. From the text:
(§1) Seeds of plant species selected from bermudagrass (Cynodon dactylon), Surinam grass (Brachiaria decumbens), crabgrass, large (large crabgrass, Digitaria sanguinalis), crabgrass, naked (naked crabgrass, Digitaria nuda), foxtail, green (green foxtail, Setaria viridis), johnsongrass (Sorghum halepense), kochia (Kochia scoparia), morningglory (pitted morningglory, Ipomoea lacunosa), nutsedge, purple (purple nutsedge, Cyperus rotundus), ragweed (common ragweed, Ambrosia elation), mustard, black (black mustard, Brassica nigra), guineagrass (Panicum maximum), dallisgrass (Paspalum dilatatum), barnyardgrass (Echinochloa crus-galli), sandbur (southern sandbur, Cenchrus echinatus), sowthistle (common sowthistle, Sonchus oleraceous), ryegrass, Italian (Italian ryegrass, Lolium multiflorum), signalgrass (broadleaf signalgrass, Brachiaria platyphylla), dayflower, VA (Virginia (VA) dayflower, Commelina virginica), bluegrass (annual bluegrass, Poa annua), quackgrass (Elytrigia repens), mallow (common mallow, Malva sylvestris), buckwheat, wild (wild buckwheat, Polygonum convolvulus), leafy spurge (Euphorbia esula), common chickweed (Stellaria media), wild poinsettia (Euphorbia heterophylla), pigweed, palmer (palmer pigweed, Amaranthus palmeri), and pigweed (redroot pigweed, Amaranthus retroflexus) were planted into a blend of loam soil and sand and treated preemergence with test chemicals formulated in a non-phytotoxic solvent mixture which included a surfactant.
(§2) Treated plants and controls were maintained in a greenhouse for 21 days, after which time all species were compared to controls and visually evaluated. Plant response ratings, summarized in Table E, are based on a scale of 0 to 100 where 0 is no effect and 100 is complete control. A dash (-) response means no test result.

Assay [2] concerns pigweed, palmer. Briefly: Test E preemergence. As to conditions: 21 days, scale 0 to 100. Format: in vivo, Amaranthus palmeri.
Source text: as §1, §2

Assay [3] concerns barnyardgrass. In words: Test E preemergence. The assay is classed as in vivo, Echinochloa crus-galli. The following applies: 21 days, scale 0 to 100.
Source text: as §1, §2

For assay [4], the system named is cocklebur. Briefly: Test F preemergence. The assay is classed as in vivo, Xanthium strumarium. The following applies: scale 0 to 100. From the text: Seeds of plant species selected from corn (Zea mays), soybean (Glycine max), velvetleaf (Abutilon theophrasti), lambsquarters (Chenopodium album), wild poinsettia (Euphorbia heterophylla), pigweed, palmer (palmer pigweed, Amaranthus palmeri), common waterhemp (Amaranthus rudis), surinam grass (Brachiaria decumbens), large crabgrass (Digitaria sanguinalis), crabgrass, Brazil (Brazilian crabgrass, Digitaria horizontalis), fall panicum (Panicum dichotomiflorum), giant foxtail (Setaria faberii), green foxtail (Setaria viridis), goosegrass (Eleusine indica), johnsongrass (Sorghum halepense), common ragweed (Ambrosia elation), barnyardgrass (Echinochloa crus-galli), southern sandbur (Cenchrus echinatus), arrowleaf sida (Sida rhombifolia), Italian ryegrass (Lolium multiflorum), dayflower, VA (Virginia (VA) dayflower, Commelina virginica), field bindweed (Convolvulus arvensis), cocklebur (common cocklebur, Xanthium strumarium), morningglory (Ipomoea coccinea), nightshade (eastern black nightshade, Solanum ptycanthum), kochia (Kochia scoparia), yellow nutsedge (Cyperus esculentus), and hairy beggarticks (Bidens pilosa), were planted into a silt loam soil and treated preemergence with test chemicals formulated in a non-phytotoxic solvent mixture which included a surfactant.
At the same time, plants from these crop and weed species and also horseweed (Canada horseweed, Conyza canadensis), smartweed (ladysthumb smartweed, Polygonum persicaria), waterhemp_RES1, (ALS & Triazine resistant common waterhemp, Amaranthus rudis), and waterhemp_RES2, (ALS & HPPD resistant common waterhemp, Amaranthus rudis) were treated with postemergence applications of test chemicals formulated in the same manner. Plants ranged in height from 2 to 18 cm for postemergence treatments (1- to 4-leaf stage). Treated plants and controls were maintained in a greenhouse for 14 to 21 days, after which time all species were compared to controls and visually evaluated. Plant response ratings, summarized in Table F, are based on a scale of 0 to 100 where 0 is no effect and 100 is complete control. […]

For `CCc1cc(C(=O)NCC(F)(F)F)nn1Cc1ccnc(C(F)(F)F)c1` [Compound 78, 5-ethyl-N-(2,2,2-trifluoroethyl)-1-[[(2-trifluoromethyl)-4-pyridinyl]methyl]-1H-pyrazole-3-carboxamide], the “Plant response rating, Sowthistle” value in assay [1] (62 g ai/ha), in assay [1] (125 g ai/ha) and in assay [1] (250 g ai/ha) was 100 throughout. Further, the “Plant response rating, Pigweed, Palmer” value in assay [2] (16 g ai/ha) turned out to be 40; in assay [2] (31 g ai/ha), 80; in assay [2] (62 g ai/ha) it was 100; in assay [2] (125 g ai/ha) it was 100; in assay [2] (250 g ai/ha), 100. In addition, the “Plant response rating, Barnyardgrass” value in assay [3] (16 g ai/ha) was 35; in assay [3] (31 g ai/ha) it was 95; in assay [3] (62 g ai/ha), 100; in assay [3] (125 g ai/ha), 100; in assay [3] (250 g ai/ha) it was 100.
On to `CCc1cc(C(=O)NC(C)C)nn1Cc1ccnc(C(F)(F)F)c1` [Compound 103], for which the “Plant response rating, Barnyardgrass” value in assay [3] (16 g ai/ha) is 90; in assay [3] (31 g ai/ha), 100; in assay [3] (62 g ai/ha) it was 100; in assay [3] (125 g ai/ha), 100; in assay [3] (250 g ai/ha), 100.
Regarding `CCOc1cc(C(=O)NCC(F)(F)F)nn1Cc1ccnc(C(F)(F)F)c1` [Compound 104], the “Plant response rating, Barnyardgrass” value in assay [3] (16 g ai/ha) is recorded as 95; in assay [3] (31 g ai/ha), 100; in assay [3] (62 g ai/ha), 100; in assay [3] (125 g ai/ha), 100; in assay [3] (250 g ai/ha), 100.
`CCCc1cc(C(=O)NCC(F)(F)F)nn1Cc1ccnc(C(F)(F)F)c1` [Compound 105]: the “Plant response rating, Sowthistle” value in assay [1] (16 g ai/ha), in assay [1] (31 g ai/ha), in assay [1] (62 g ai/ha), in assay [1] (125 g ai/ha) and in assay [1] (250 g ai/ha) was 100 each time. In addition, the “Plant response rating, Barnyardgrass” value in assay [3] (16 g ai/ha) is listed as 35; in assay [3] (31 g ai/ha), 70; in assay [3] (62 g ai/ha), 85; in assay [3] (125 g ai/ha), 95; in assay [3] (250 g ai/ha) it was 98.
Take `CCOc1cc(C(=O)NC2CC2)nn1Cc1ccnc(C(F)(F)F)c1` [Compound 189]: the “Plant response rating, Sowthistle” value in assay [1] (4 g ai/ha) is reported as 98; in assay [1] (8 g ai/ha) it was 98; in assay [1] (16 g ai/ha) it was 100; in assay [1] (31 g ai/ha), 100; in assay [1] (62 g ai/ha), 100. Besides, the “Plant response rating, Barnyardgrass” value in assay [3] (4 g ai/ha) is listed as 0; in assay [3] (8 g ai/ha), 0; in assay [3] (16 g ai/ha), 35; in assay [3] (31 g ai/ha) it was 100; in assay [3] (62 g ai/ha), 100.
For `CCc1cc(C(=O)NC2CC2)nn1Cc1ccnc(OCC(F)(F)F)c1` [Compound 200], the “Plant response rating, Cocklebur” value in assay [4] (16 g ai/ha) stood at 20; in assay [4] (62 g ai/ha), 30; in assay [4] (250 g ai/ha) it was 30.
